ChEMBL document CHEMBL1201862, “PubChem BioAssay data set” (2004)
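Tested at 5 concentrations; 48 h exposure; 96-well plates; endpoints linearly interpolated, else capped at highest concentration. GI50 marks 50% less growth.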 Active and inactive are the calls of the source. Cut-off read from the data, not from the text of the source: active = GI50 up to about 1.1 µM and inactive = higher.

Assays:
Test in all cases: DTP human tumour cell line panel, 48 h
A498 = tested on: A498
DU-145 = tested on: DU-145
K562 = tested on: K562
MCF7 = tested on: MCF7
MDA-MB-231 = tested on: MDA-MB-231
MDA-MB-435 = tested on: MDA-MB-435
MDA-N = tested on: MDA-N
MOLT-4 = tested on: MOLT-4
Malme-3M = tested on: Malme-3M
NCI-H226 = tested on: NCI-H226
NCI-H23 = tested on: NCI-H23
NCI/ADR-RES = tested on: NCI/ADR-RES
PC-3 = tested on: PC-3
SNB-75 = tested on: SNB-75
UACC-257 = tested on: UACC-257
UACC-62 = tested on: UACC-62
DLD-1 = tested on: DLD-1
HOP-18 = tested on: HOP-18

Compound: COc1cc([C@@H]2c3cc4c(cc3[C@@H](Nc3ccc(Cl)cc3C(=O)c3ccccc3Cl)[C@H]3COC(=O)[C@H]23)OCO4)cc(OC)c1OC
- GI50 (A498): 0.0989 µM (active)
- GI50 (DU-145): 0.314 µM (active)
- GI50 (K562): 0.106 µM (active)
- GI50 (MCF7): 0.111 µM (active)
- GI50 (MDA-MB-231): 0.39 µM (active)
- GI50 (MDA-MB-435): 0.0661 µM (active)
- GI50 (MDA-N): 0.0873 µM (active)
- GI50 (MOLT-4): 0.142 µM (active)
- GI50 (Malme-3M): 0.143 µM (active)
- GI50 (NCI-H226): 0.0294 µM (active)
- GI50 (NCI-H23): 0.166 µM (active)
- GI50 (NCI/ADR-RES): 0.173 µM (active)
- GI50 (PC-3): 0.16 µM (active)
- GI50 (SNB-75): 0.188 µM (active)
- GI50 (UACC-257): 0.184 µM (active)
- GI50 (UACC-62): 0.118 µM (active)

Compound: Cc1ccc2oc(=O)c(-c3ccccc3)nc2c1
- GI50 (DLD-1): 11.7 µM (inactive)
- GI50 (HOP-18): 34.2 µM (inactive)
- GI50 (K562): 24.3 µM (inactive)
- GI50 (MOLT-4): 10.7 µM (inactive)
- GI50 (Malme-3M): 23.4 µM (inactive)
- GI50 (NCI-H226): 37.8 µM (inactive)
- GI50 (NCI-H23): 24.7 µM (inactive)
- GI50 (SNB-75): 37.5 µM (inactive)
- GI50 (UACC-257): 37.5 µM (inactive)

Compound: C[C@H]1COC(c2ccccn2)=N1
- GI50 (A498): > 100 µM (inactive)
- GI50 (DLD-1): > 100 µM (inactive)
- GI50 (HOP-18): > 100 µM (inactive)
- GI50 (K562): > 100 µM (inactive)
- GI50 (MCF7): > 100 µM (inactive)
- GI50 (MOLT-4): > 100 µM (inactive)
- GI50 (Malme-3M): > 100 µM (inactive)
- GI50 (NCI-H226): > 100 µM (inactive)
- GI50 (NCI-H23): > 100 µM (inactive)
- GI50 (NCI/ADR-RES): > 100 µM (inactive)
- GI50 (SNB-75): > 100 µM (inactive)
- GI50 (UACC-257): > 100 µM (inactive)
- GI50 (UACC-62): > 100 µM (inactive)

Compound: CCn1c(SCC(=O)N/N=C/c2ccccc2)nc2ccccc2c1=O
- GI50 (A498): 8.22 µM (inactive)
- GI50 (DU-145): 48.2 µM (inactive)
- GI50 (K562): 1.87 µM (inactive)
- GI50 (MCF7): 4.75 µM (inactive)
- GI50 (MDA-MB-231): 14.3 µM (inactive)
- GI50 (MDA-MB-435): 2.11 µM (inactive)
- GI50 (MDA-N): 2.54 µM (inactive)
- GI50 (MOLT-4): 5.14 µM (inactive)
- GI50 (Malme-3M): 12.5 µM (inactive)
- GI50 (NCI-H226): 10.8 µM (inactive)
- GI50 (NCI-H23): 31.8 µM (inactive)
- GI50 (NCI/ADR-RES): 4.05 µM (inactive)
- GI50 (PC-3): 15 µM (inactive)
- GI50 (SNB-75): 12.8 µM (inactive)
- GI50 (UACC-257): 21.8 µM (inactive)
- GI50 (UACC-62): 5.52 µM (inactive)

Compound: COc1ccc2cc(CN3CCC(C4CCN(Cc5ccc6cc(OC)ccc6c5)CC4)CC3)ccc2c1
- GI50 (A498): 8.43 µM (inactive)
- GI50 (DU-145): 6.21 µM (inactive)
- GI50 (K562): 0.455 µM (active)
- GI50 (MCF7): 4.06 µM (inactive)
- GI50 (MDA-MB-231): 2.52 µM (inactive)
- GI50 (MDA-MB-435): 1.69 µM (inactive)
- GI50 (MDA-N): 2.04 µM (inactive)
- GI50 (MOLT-4): 2.2 µM (inactive)
- GI50 (Malme-3M): 2.17 µM (inactive)
- GI50 (NCI-H226): 16.6 µM (inactive)
- GI50 (NCI-H23): 17.1 µM (inactive)
- GI50 (NCI/ADR-RES): 6.82 µM (inactive)
- GI50 (PC-3): 15.8 µM (inactive)
- GI50 (SNB-75): 4.45 µM (inactive)
- GI50 (UACC-257): 2.09 µM (inactive)
- GI50 (UACC-62): 1.97 µM (inactive)
